Laboratory results as given in ChEMBL document CHEMBL5344411, “Phenotypic screening-based drug discovery of furan-2-carboxylic acid derivatives for the amelioration of type 2 diabetes mellitus (T2DM)” (Eur J Med Chem, 2023).
Active and inactive are the calls of the source. No cut-off for these calls is given here.

What was measured:
Mus musculus [1] = assay: Antihyperglycemic activity in diabetic ob/ob mouse assessed as reduction in fasting blood glucose level at 5 mg/kg administered via gavage qd for 24 days and measured on day 24; type: functional; details: po, 576 h, time 24 day
Hepatocyte [2] = assay: Inhibition of gluconeogenesis in Sprague-Dawley rat hepatocytes at 3 uM incubated for 1.5 hrs followed by sodium pyruvate and sodium lactate addition and measured after 4 hrs by colorimetric analysis relative to control; type: functional; details: time 5.5 hrs
[3] = Tmax in CD-1 mouse at 30 mg/kg, po by LC-MS/MS analysis; type: ADME, organism-based; details: in vivo
[4] = Tmax in CD-1 mouse at 1 mg/kg, po by LC-MS/MS analysis; type: ADME, organism-based; details: in vivo
Hepatocyte [5] = assay: Inhibition of gluconeogenesis in Sprague-Dawley rat hepatocytes at 10 uM incubated for 1.5 hrs followed by sodium pyruvate and sodium lactate addition and measured after 4 hrs by colorimetric analysis relative to control; type: functional; details: time 5.5 hrs
[6] = AUC(last) in CD-1 mouse at 10 mg/kg, po by LC-MS/MS analysis; type: ADME, organism-based; parameters: dose 10 mg/kg, route po; details: in vivo
[7] = Observed AUCinfinity in CD-1 mouse at 1 mg/kg, iv by LC-MS/MS analysis; type: ADME, organism-based; parameters: dose 1 mg/kg, route iv; details: in vivo
[8] = Observed AUCinfinity in CD-1 mouse at 30 mg/kg, po by LC-MS/MS analysis; type: ADME, organism-based; parameters: dose 30 mg/kg, route po; details: in vivo
[9] = Observed clearance in CD-1 mouse at 1 mg/kg, iv by LC-MS/MS analysis; type: ADME, organism-based; details: in vivo
[10] = Observed MRTinfinity in CD-1 mouse at 1 mg/kg, iv by LC-MS/MS analysis; type: ADME, organism-based; details: in vivo
[11] = Oral bioavailability in CD-1 mouse at 30 mg/kg by LC-MS/MS analysis; type: ADME, organism-based; details: in vivo
[12] = Cmax in CD-1 mouse at 10 mg/kg, po by LC-MS/MS analysis; type: ADME, organism-based; parameters: dose 10 mg/kg, route po; details: in vivo
Mus musculus [13] = assay: Inhibition of gluconeogenesis in CD-1 mouse assessed as decrease in blood glucose level at 25 mg/kg administered via gavage at 1 hr prior to pyruvate sodium challenge and measured for 2 hrs by pyruvate tolerance test; type: functional, organism-based; details: time 3.0 hrs
[14] = Half life in CD-1 mouse at 30 mg/kg, po by LC-MS/MS analysis; type: ADME, organism-based; details: in vivo
Hepatocyte [15] = assay: Inhibition of gluconeogenesis in Sprague-Dawley rat hepatocytes at 0.3 uM incubated for 1.5 hrs followed by sodium pyruvate and sodium lactate addition and measured after 4 hrs by colorimetric analysis relative to control; type: functional; details: time 5.5 hrs
[16] = Observed MRTinfinity in CD-1 mouse at 3 mg/kg, po by LC-MS/MS analysis; type: ADME, organism-based; details: in vivo
[17] = Observed MRTinfinity in CD-1 mouse at 1 mg/kg, po by LC-MS/MS analysis; type: ADME, organism-based; details: in vivo
[18] = Observed AUCinfinity in CD-1 mouse at 10 mg/kg, po by LC-MS/MS analysis; type: ADME, organism-based; parameters: dose 10 mg/kg, route po; details: in vivo
[19] = Cmax in CD-1 mouse at 3 mg/kg, po by LC-MS/MS analysis; type: ADME, organism-based; parameters: dose 3 mg/kg, route po; details: in vivo
[20] = AUC(last) in CD-1 mouse at 3 mg/kg, po by LC-MS/MS analysis; type: ADME, organism-based; parameters: dose 3 mg/kg, route po; details: in vivo
[21] = Observed volume of distribution at steady state in CD-1 mouse at 1 mg/kg, iv by LC-MS/MS analysis; type: ADME, organism-based; details: in vivo, read-out: Vdss
[22] = AUC(last) in CD-1 mouse at 1 mg/kg, iv by LC-MS/MS analysis; type: ADME, organism-based; parameters: dose 1 mg/kg, route iv; details: in vivo
[23] = Oral bioavailability in CD-1 mouse at 3 mg/kg by LC-MS/MS analysis; type: ADME, organism-based; details: in vivo
[24] = Oral bioavailability in CD-1 mouse at 10 mg/kg by LC-MS/MS analysis; type: ADME, organism-based; details: in vivo
[25] = AUC(last) in CD-1 mouse at 30 mg/kg, po by LC-MS/MS analysis; type: ADME, organism-based; parameters: dose 30 mg/kg, route po; details: in vivo
[26] = Observed AUCinfinity in CD-1 mouse at 1 mg/kg, po by LC-MS/MS analysis; type: ADME, organism-based; parameters: dose 1 mg/kg, route po; details: in vivo
[27] = Observed AUCinfinity in CD-1 mouse at 3 mg/kg, po by LC-MS/MS analysis; type: ADME, organism-based; parameters: dose 3 mg/kg, route po; details: in vivo
[28] = Half life in CD-1 mouse at 10 mg/kg, po by LC-MS/MS analysis; type: ADME, organism-based; details: in vivo
[29] = Observed MRTinfinity in CD-1 mouse at 30 mg/kg, po by LC-MS/MS analysis; type: ADME, organism-based; details: in vivo
[30] = Half life in CD-1 mouse at 1 mg/kg, iv by LC-MS/MS analysis; type: ADME, organism-based; details: in vivo
[31] = AUC(last) in CD-1 mouse at 1 mg/kg, po by LC-MS/MS analysis; type: ADME, organism-based; parameters: dose 1 mg/kg, route po; details: in vivo
Hepatocyte [32] = assay: Inhibition of gluconeogenesis in Sprague-Dawley rat hepatocytes at 1 uM incubated for 1.5 hrs followed by sodium pyruvate and sodium lactate addition and measured after 4 hrs by colorimetric analysis relative to control; type: functional; details: time 5.5 hrs
[33] = Half life in CD-1 mouse at 3 mg/kg, po by LC-MS/MS analysis; type: ADME, organism-based; details: in vivo
[34] = Toxicity in diabetic ob/ob mouse assessed as effect on daily food intake at 5 mg/kg administered via gavage qd for 24 days; type: organism-based; details: in vivo, po, 576 h, time 24 day
[35] = Cmax in CD-1 mouse at 1 mg/kg, po by LC-MS/MS analysis; type: ADME, organism-based; parameters: dose 1 mg/kg, route po; details: in vivo
[36] = Cmax in CD-1 mouse at 30 mg/kg, po by LC-MS/MS analysis; type: ADME, organism-based; parameters: dose 30 mg/kg, route po; details: in vivo
[37] = Tmax in CD-1 mouse at 10 mg/kg, po by LC-MS/MS analysis; type: ADME, organism-based; details: in vivo
Mus musculus [38] = assay: Antihyperglycemic activity in diabetic ob/ob mouse assessed as reduction in non-fasting blood glucose level at 5 mg/kg administered via gavage qd for 24 days and measured on day 24; type: functional; details: po, 576 h, time 24 day
[39] = Toxicity in diabetic ob/ob mouse assessed as effect on body weight at 5 mg/kg administered via gavage qd for 24 days; type: organism-based; details: in vivo, po, 576 h, time 24 day
[40] = Oral bioavailability in CD-1 mouse at 1 mg/kg by LC-MS/MS analysis; type: ADME, organism-based; details: in vivo
[41] = Tmax in CD-1 mouse at 3 mg/kg, po by LC-MS/MS analysis; type: ADME, organism-based; details: in vivo
[42] = Half life in CD-1 mouse at 1 mg/kg, po by LC-MS/MS analysis; type: ADME, organism-based; details: in vivo
[43] = Observed MRTinfinity in CD-1 mouse at 10 mg/kg, po by LC-MS/MS analysis; type: ADME, organism-based; details: in vivo
Mus musculus [44] = assay: Inhibition of gluconeogenesis in CD-1 mouse assessed as decrease in blood glucose level at 50 mg/kg administered via gavage at 1 hr prior to pyruvate sodium challenge and measured for 2 hrs by pyruvate tolerance test; type: functional, organism-based; details: time 3.0 hrs

## CCCc1ccc(OCc2ccc(C(=O)O)o2)cc1OC
Mus musculus [1]
  inhibition in vivo at 5 mg/kg: 40.5%
Hepatocyte [2]
  fold change (FC): 0.16
[3]
  Tmax: 0.25 h
[4]
  Tmax: 0.25 h
Hepatocyte [5]
  fold change (FC): 0.03
[6]
  AUC(0-t): 9590 ng·h/mL
[7]
  AUC(0-inf): 1250 ng·h/mL
[8]
  AUC(0-inf): 52800 ng·h/mL
[9]
  clearance: 13.5 mL/min/kg
[10]
  MRT inf: 0.798 h
[11]
  bioavailability: 144%
[12]
  Cmax: 7580 ng/mL
Mus musculus [13]
  inhibition: Active
[14]
  half-life: 3.15 h
Hepatocyte [15]
  fold change (FC): 0.75
[16]
  MRT inf: 2.74 h
[17]
  MRT inf: 2.07 h
[18]
  AUC(0-inf): 9620 ng·h/mL
[19]
  Cmax: 1460 ng/mL
[20]
  AUC(0-t): 2430 ng·h/mL
[21]
  Vd: 0.65 L/kg
[22]
  AUC(0-t): 1220 ng·h/mL
[23]
  bioavailability: 66.7%
[24]
  bioavailability: 78.9%
[25]
  AUC(0-t): 52700 ng·h/mL
[26]
  AUC(0-inf): 709 ng·h/mL
[27]
  AUC(0-inf): 2480 ng·h/mL
[28]
  half-life: 3.12 h
[29]
  MRT inf: 1.7 h
[30]
  half-life: 0.828 h
[31]
  AUC(0-t): 678 ng·h/mL
Hepatocyte [32]
  fold change (FC): 0.64
[33]
  half-life: 2.26 h
[34]
  Activity: Non-Toxic
[35]
  Cmax: 547 ng/mL
[36]
  Cmax: 41000 ng/mL
[37]
  Tmax: 0.25 h
Mus musculus [38]
  inhibition in vivo at 5 mg/kg: 34.9%
[39]
  Activity: Non-Toxic
[40]
  bioavailability: 55.7%
[41]
  Tmax: 0.25 h
[42]
  half-life: 1.8 h
[43]
  MRT inf: 2.31 h
Mus musculus [44]
  inhibition: Active

## CNC(=O)/C=C/c1ccc(OCc2ccc(C(=O)O)o2)c(OC)c1
Hepatocyte [5]
  fold change (FC): 0.85

## C=CCc1cccc(OC)c1OCc1ccc(C(=O)O)o1
Hepatocyte [5]
  fold change (FC): 0.78

## CCCOc1cc(CCC)ccc1OCc1ccc(C(=O)O)o1
Hepatocyte [5]
  fold change (FC): 0.72

## CCCc1ccc(OC)c(OCc2ccc(C(=O)O)o2)c1
Hepatocyte [5]
  fold change (FC): 1.18

## C=CCc1ccc(OCc2ccc(C(=O)NCc3ccccc3)o2)c(OC)c1
Hepatocyte [5]
  fold change (FC): 0.97

## C=CCc1ccc(OCc2ccc(C(=O)Nc3cccc(C)c3)o2)c(OC)c1
Hepatocyte [5]
  fold change (FC): 0.83

## COc1cc(CCC(=O)N(C)C)ccc1OCc1ccc(C(=O)O)o1
Hepatocyte [5]
  fold change (FC): 0.9

## CCCc1ccc(OCc2ccc(C(=O)O)o2)c(OC(C)C)c1
Hepatocyte [5]
  fold change (FC): 1.25

## C=CCc1ccc(OCc2ccc(C(=O)O)s2)c(OC)c1
Hepatocyte [5]
  fold change (FC): 1.05

## C=CCc1ccc(OCc2ccc(C(=O)N(C)C)o2)c(OC)c1
Hepatocyte [5]
  fold change (FC): 0.87

## C=CCc1ccc(OCc2ncc(C(=O)O)s2)c(OC)c1
Hepatocyte [5]
  fold change (FC): 1.33

## C=CCc1ccc(OCc2cccc(C(=O)O)n2)c(OC)c1
Hepatocyte [5]
  fold change (FC): 1.11

## CCCc1ccc(OCc2ccc(C(=O)O)o2)c(OCCn2cccc2)c1
Hepatocyte [5]
  fold change (FC): 1.28

## C/C=C/c1ccc(OCc2ccc(C(=O)O)o2)c(OC)c1
Hepatocyte [5]
  fold change (FC): 0.93

## CCCc1ccc(OCc2ccc(C(=O)O)o2)c(OCC2CC2)c1
Hepatocyte [5]
  fold change (FC): 1.16

## COc1cc(Cl)ccc1OCc1ccc(C(=O)O)o1
Hepatocyte [2]
  fold change (FC): 0.51
Hepatocyte [5]
  fold change (FC): 0.33
Hepatocyte [15]
  fold change (FC): 1.02
Hepatocyte [32]
  fold change (FC): 0.78
Mus musculus [44]
  inhibition: Active

## C=CCc1ccc(OCc2cccc(C(=O)O)c2)c(OC)c1
Hepatocyte [5]
  fold change (FC): 1.06
